Reference: patent US4211772A, “Benzopyran glycoside acetals and ketals” (Laboratoires Sarget, priority 1977, dated 1980)
≈ marks a conversion by molar mass, not a printed value. Where two headings read alike, the source gives them in different places.

How the values were obtained:
galactosemic cataract = assay: Galactosemic cataract in rats; type: in vivo, weaning male EOPS Wistar rats; conditions: 100 mg/kg/d i.p.
Protocol: GALACTOSEMIC CATARACT IN RATS
The study was conducted using weaning male EOPS Wistar rats having an initial weight of between 45 and 50 g. The animals were fed a high vitamin and high protein regimen containing 20% by weight of galactose. The first signs of cataracts, detected by the ophthalmoscope, appeared beginning with the third day. The animals received daily i.p. doses of the test compound, the treatment being started four days after the commencement of the galactosemic regimen. The evolution of the cataract was followed by the detection of maroon rings visible in the ophthalmoscope. These rings appeared on the external edge of the lens and progressed little by little to its center. Anatomopathological studies of the lenses confirmed that these brown rings correspond well to the characteristic histological lesions of galactosemic cataracts. Photographs taken with the aid of a retinograph facilitated the comparison of the evolution of the lesions.
Statistical calculations according to the .chi.^2 method permit an evaluation of the significance of the results obtained for each of the treatments compared to those for non-treated animals.

carragenin edema = assay: Anti-inflammatory activity: carragenin edema test; type: in vivo; conditions: for % inhibition of carragenin edema: borate buffer pH 7, 24 h; for inhibition in vivo at 100 mg/kg / inhibition in vivo at 200 mg/kg / inhibition in vivo at 300 mg/kg / inhibition in vivo at 75 mg/kg / inhibition in vivo at 150 mg/kg: Rattus norvegicus, ip
In short: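 Male Wistar EOPS rats receive 0.1 ml of 5% carragenin suspension in physiological serum into the hind-paw metatarsal muscle, with test substance given i.p. in neutralized solution at the same time. Paw edema is measured by plethysmometry at several times after carragenin and reported as % inhibition against pH-matched physiological serum controls.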

Wistar EOPS rat = assay: Minimum lethal dose by slow i.v. perfusion in the rat; type: in vivo
Protocol: The minimum lethal dose of compound No. 1 administered by slow i.v. perfusion in the Wistar EOPS rat is in the neighborhood of 15 mg/kg/min. for 30 min.

capillary resistance = assay: Capillaroprotecting effects: capillary resistance; type: in vivo, male OFA EOPS rats
Protocol: (§1) Capillaroprotecting effects
The capillary resistance was determined by a variant of the method of Charlier et al, Arch. Inter. Physiol.

Aldose Reductase = target: T1, Aldose Reductase (Bos taurus, UniProt P16116); assay: Inhibition of aldose reductase in vitro (enzyme from beef eye lenses, glyceraldehyde substrate); type: biochemical; conditions: in DMF solution, read-out: percentages of inhibition (aldose reductase)
T1 construct: The enzyme is extracted from beef eye lenses; from tissue; host or cells: beef eye lenses
Text: Inhibition of Aldose Reductase In Vitro
The reoxidation of NADPH coupled to the enzymatic reaction was followed spectrophotometrically at 340 nm.

Solubilities in water = type: physicochemical; conditions: water; read-out: Solubilities in water
capillary permeability = assay: Capillaroprotecting effects: capillary permeability; type: in vivo, conventional male Wistar rats
Protocol: as §1
The capillary permeability was determined by the method of Charlier et al, Arch. Inter. Physiol.

## C[C@@H]1O[C@@H](OC[C@H]2O[C@@H](Oc3c(-c4ccc(O)c(O)c4)oc4cc(O)cc(O)c4c3=O)[C@H](O)[C@@H](O)[C@@H]2O)[C@@H]2OC(C)(C)O[C@@H]2[C@H]1O [No. 1, 3-O-(2,3-O,O-isopropylidene-6-α-L-rhamnosyl-β-D-glucosyl)-quercetin]
Galactosemic cataract; day 0
  percentage of animals which have not yet shown the appearance of cataracts: 100%
Galactosemic cataract; day 1
  percentage of animals which have not yet shown the appearance of cataracts: 100%
Galactosemic cataract; day 2
  percentage of animals which have not yet shown the appearance of cataracts: 87.5%
Galactosemic cataract; day 3
  percentage of animals which have not yet shown the appearance of cataracts: 81%
Galactosemic cataract; day 4
  percentage of animals which have not yet shown the appearance of cataracts: 50%
  significance compared to non-treated animals (chi^2): S
Galactosemic cataract; day 5
  percentage of animals which have not yet shown the appearance of cataracts: 37.5%
  significance compared to non-treated animals (chi^2): S
Galactosemic cataract; day 6
  percentage of animals which have not yet shown the appearance of cataracts: 37.5%
  significance compared to non-treated animals (chi^2): S
Galactosemic cataract; day 10
  percentage of animals which have not yet shown the appearance of cataracts: 37.5%
  significance compared to non-treated animals (chi^2): S
Galactosemic cataract; day 12
  percentage of animals which have not yet shown the appearance of cataracts: 28%
  significance compared to non-treated animals (chi^2): S
Galactosemic cataract; day 16
  percentage of animals which have not yet shown the appearance of cataracts: 19%
  significance compared to non-treated animals (chi^2): S
Galactosemic cataract; day -4
  percentage of animals which have not yet shown the appearance of cataracts: 100%
Carragenin edema; 75 mg/kg i.p.
  % inhibition of carragenin edema: 5%
Carragenin edema; 150 mg/kg i.p.
  % inhibition of carragenin edema: 21%
Carragenin edema; 200 mg/kg i.p.
  % inhibition of carragenin edema: 0%
Carragenin edema; 100 mg/kg i.p., physiological serum, 1/2 h, read-out: % inhibition of carragenin edema
  inhibition in vivo at 100 mg/kg: 33%
Carragenin edema; 200 mg/kg i.p., physiological serum, 1/2 h, read-out: % inhibition of carragenin edema
  inhibition in vivo at 200 mg/kg: 0%
Carragenin edema; 300 mg/kg i.p., physiological serum, 1/2 h, read-out: % inhibition of carragenin edema
  inhibition in vivo at 300 mg/kg: 30%
Carragenin edema; 1 h, pH 7, read-out: % inhibition of carragenin edema, 75 mg/kg i.p., borate buffer pH 7, 1 h
  inhibition in vivo at 75 mg/kg: 18%
Carragenin edema; 1 h, pH 7, read-out: % inhibition of carragenin edema, 75 mg/kg i.p., borate buffer pH 7, 1 h 1/2
  inhibition in vivo at 75 mg/kg: 29%
Carragenin edema; 1 h, pH 7, read-out: % inhibition of carragenin edema, 150 mg/kg i.p., borate buffer pH 7, 1 h
  inhibition in vivo at 150 mg/kg: 25%
Carragenin edema; 1 h, pH 7, read-out: % inhibition of carragenin edema, 150 mg/kg i.p., borate buffer pH 7, 1 h 1/2
  inhibition in vivo at 150 mg/kg: 40%
Carragenin edema; 1 h, pH 7, read-out: % inhibition of carragenin edema, 200 mg/kg i.p., borate buffer pH 7, 1 h
  inhibition in vivo at 200 mg/kg: 16%
Carragenin edema; 1 h, pH 7, read-out: % inhibition of carragenin edema, 200 mg/kg i.p., borate buffer pH 7, 1 h 1/2
  inhibition in vivo at 200 mg/kg: 37%
Carragenin edema; 1 h, read-out: % inhibition of carragenin edema, 100 mg/kg i.p., physiological serum, 1 h
  inhibition in vivo at 100 mg/kg: 24%
Carragenin edema; 1 h, read-out: % inhibition of carragenin edema, 200 mg/kg i.p., physiological serum, 1 h
  inhibition in vivo at 200 mg/kg: 0%
Carragenin edema; 1 h, read-out: % inhibition of carragenin edema, 300 mg/kg i.p., physiological serum, 1 h
  inhibition in vivo at 300 mg/kg: 37%
Carragenin edema; 2 h, pH 7, read-out: % inhibition of carragenin edema, 75 mg/kg i.p., borate buffer pH 7, 2 h
  inhibition in vivo at 75 mg/kg: 23%
Carragenin edema; 2 h, pH 7, read-out: % inhibition of carragenin edema, 150 mg/kg i.p., borate buffer pH 7, 2 h
  inhibition in vivo at 150 mg/kg: 34%
Carragenin edema; 2 h, pH 7, read-out: % inhibition of carragenin edema, 200 mg/kg i.p., borate buffer pH 7, 2 h
  inhibition in vivo at 200 mg/kg: 38%
Carragenin edema; 2 h, read-out: % inhibition of carragenin edema, 100 mg/kg i.p., physiological serum, 2 h
  inhibition in vivo at 100 mg/kg: 5%
Carragenin edema; 2 h, read-out: % inhibition of carragenin edema, 200 mg/kg i.p., physiological serum, 2 h
  inhibition in vivo at 200 mg/kg: 8%
Carragenin edema; 2 h, read-out: % inhibition of carragenin edema, 300 mg/kg i.p., physiological serum, 2 h
  inhibition in vivo at 300 mg/kg: 8%
Carragenin edema; 3 h, pH 7, read-out: % inhibition of carragenin edema, 75 mg/kg i.p., borate buffer pH 7, 3 h
  inhibition in vivo at 75 mg/kg: 20%
Carragenin edema; 3 h, pH 7, read-out: % inhibition of carragenin edema, 150 mg/kg i.p., borate buffer pH 7, 3 h
  inhibition in vivo at 150 mg/kg: 26%
Carragenin edema; 3 h, pH 7, read-out: % inhibition of carragenin edema, 200 mg/kg i.p., borate buffer pH 7, 3 h
  inhibition in vivo at 200 mg/kg: 30%
Carragenin edema; 3 h, read-out: % inhibition of carragenin edema, 100 mg/kg i.p., physiological serum, 3 h
  inhibition in vivo at 100 mg/kg: 7%
Carragenin edema; 3 h, read-out: % inhibition of carragenin edema, 200 mg/kg i.p., physiological serum, 3 h
  inhibition in vivo at 200 mg/kg: 8%
Carragenin edema; 3 h, read-out: % inhibition of carragenin edema, 300 mg/kg i.p., physiological serum, 3 h
  inhibition in vivo at 300 mg/kg: 16%
Carragenin edema; 4 h, pH 7, read-out: % inhibition of carragenin edema, 75 mg/kg i.p., borate buffer pH 7, 4 h
  inhibition in vivo at 75 mg/kg: 14%
Carragenin edema; 4 h, pH 7, read-out: % inhibition of carragenin edema, 150 mg/kg i.p., borate buffer pH 7, 4 h
  inhibition in vivo at 150 mg/kg: 19%
Carragenin edema; 4 h, pH 7, read-out: % inhibition of carragenin edema, 200 mg/kg i.p., borate buffer pH 7, 4 h
  inhibition in vivo at 200 mg/kg: 21%
Carragenin edema; 4 h, read-out: % inhibition of carragenin edema, 100 mg/kg i.p., physiological serum, 4 h
  inhibition in vivo at 100 mg/kg: 16%
Carragenin edema; 4 h, read-out: % inhibition of carragenin edema, 200 mg/kg i.p., physiological serum, 4 h
  inhibition in vivo at 200 mg/kg: 12%
Carragenin edema; 4 h, read-out: % inhibition of carragenin edema, 300 mg/kg i.p., physiological serum, 4 h
  inhibition in vivo at 300 mg/kg: 27%
Carragenin edema; 5 h, pH 7, read-out: % inhibition of carragenin edema, 75 mg/kg i.p., borate buffer pH 7, 5 h
  inhibition in vivo at 75 mg/kg: 25%
Carragenin edema; 5 h, pH 7, read-out: % inhibition of carragenin edema, 150 mg/kg i.p., borate buffer pH 7, 5 h
  inhibition in vivo at 150 mg/kg: 27%
Carragenin edema; 5 h, pH 7, read-out: % inhibition of carragenin edema, 200 mg/kg i.p., borate buffer pH 7, 5 h
  inhibition in vivo at 200 mg/kg: 30%
Carragenin edema; 5 h, read-out: % inhibition of carragenin edema, 100 mg/kg i.p., physiological serum, 5 h
  inhibition in vivo at 100 mg/kg: 20%
Carragenin edema; 5 h, read-out: % inhibition of carragenin edema, 200 mg/kg i.p., physiological serum, 5 h
  inhibition in vivo at 200 mg/kg: 15%
Carragenin edema; 5 h, read-out: % inhibition of carragenin edema, 300 mg/kg i.p., physiological serum, 5 h
  inhibition in vivo at 300 mg/kg: 30%
Carragenin edema; 6 h, pH 7, read-out: % inhibition of carragenin edema, 75 mg/kg i.p., borate buffer pH 7, 6 h
  inhibition in vivo at 75 mg/kg: 17%
Carragenin edema; 6 h, pH 7, read-out: % inhibition of carragenin edema, 150 mg/kg i.p., borate buffer pH 7, 6 h
  inhibition in vivo at 150 mg/kg: 28%
Carragenin edema; 6 h, pH 7, read-out: % inhibition of carragenin edema, 200 mg/kg i.p., borate buffer pH 7, 6 h
  inhibition in vivo at 200 mg/kg: 18%
Carragenin edema; 6 h, read-out: % inhibition of carragenin edema, 100 mg/kg i.p., physiological serum, 6 h
  inhibition in vivo at 100 mg/kg: 7%
Carragenin edema; 6 h, read-out: % inhibition of carragenin edema, 200 mg/kg i.p., physiological serum, 6 h
  inhibition in vivo at 200 mg/kg: 9%
Carragenin edema; 6 h, read-out: % inhibition of carragenin edema, 300 mg/kg i.p., physiological serum, 6 h
  inhibition in vivo at 300 mg/kg: 27%
Carragenin edema; read-out: % inhibition of carragenin edema, 75 mg/kg i.p., borate buffer pH 7, 1/2 h
  inhibition in vivo at 75 mg/kg: 18%
Carragenin edema; read-out: % inhibition of carragenin edema, 150 mg/kg i.p., borate buffer pH 7, 1/2 h
  inhibition in vivo at 150 mg/kg: 15%
Carragenin edema; read-out: % inhibition of carragenin edema, 200 mg/kg i.p., borate buffer pH 7, 1/2 h
  inhibition in vivo at 200 mg/kg: 9%
Wistar EOPS rat
  arterial pressure and cardiac frequency, time of maximum: attain their maximum values at the twelfth minute of the perfusion
  cause of death: death occurs by respiratory arrest
  hemodynamic effects: brief, low intensity hypotension is observed accompanied by bradycardia
Wistar EOPS rat; for 30 min
  minimum lethal dose: ~15 mg/kg/min
Capillary resistance; 100 mg/kg i.p.
  % of animals for which the effect is ≥ 25 u cm Hg/h: 50%
  capillary resistance, effect observed: 21.5 ± 4.6 u cm Hg/h
Capillary resistance; 200 mg/kg i.p.
  % of animals for which the effect is ≥ 25 u cm Hg/h: 90%
  capillary resistance, effect observed: 41.25 ± 15.3 u cm Hg/h
Aldose Reductase; 10^-4 mole/l
  inhibition at 100 µM: 82%
Aldose Reductase; 10^-5 mole/l
  inhibition at 10 µM: 32%
Solubilities in water
  solubility: 7000 µg/mL (≈ 10.8 mM)
Capillary permeability; 400 mg/kg i.p.
  percentage reduction of capillary permeability: 30%
Capillary permeability; 800 mg/kg i.p.
  percentage reduction of capillary permeability: 37%
